pIC50: −log10 of the molar value. Read-outs that look alike come from different tables or passages of the source. *1 amine or outer side, *2 acyl side, *3 side chain or, on linkers, in order; H or OH if unused. Where a SMILES comes first, the peptide text is derived from it. Bridges are numbered along the chain shown (N, C = ends). [ ]: non-standard residue; d: D form. The star is where a group is joined. ξ: configuration not given here. X1 = CC[C@H](C)[C@@H](N[*:1])[C@@H](O)CC(=O)O[C@H](C(=O)[C@H](C)C(=O)[*:2])C(C)C; X2 = CC[C@H](C)[C@@H](N[*:1])[C@@H](O)CC(=O)[*:2]; X4 = CC(C)[C@H](N[*:1])C(=O)[C@H](C)C(=O)[*:2]; X3 = C[C@H](O[Si](C)(C)C(C)(C)C)C(=O)*; NMeY = CN[C@@H](Cc1ccc(O)cc1)C(=O)O; X6 = O=C1NC2CSC(CCCCC(=O)*)C2N1; dNMeL = CN[C@H](CC(C)C)C(=O)O; Hiv = CC(C)[C@H](O)C(=O)O; Isobutyryl = CC(C)C(=O)*; Pyruvoyl = CC(=O)C(=O)*; dLac = C[C@@H](O)C(=O)O; Cbz = O=C(OCc1ccccc1)*; Hexanoyl = CCCCCC(=O)*; Boc = CC(C)(C)OC(=O)*; Lac = C[C@H](O)C(=O)O; CO = O=C([*:1])[*:2]; Butyryl = CCCC(=O)*; NHPh = c1ccc(N*)cc1; ξP = O=C(O)C1CCCN1

The test system of series [1] is A549 human lung carcinoma. As to the kind of experiment: Cytotoxicity IC50 (after Berjeron et al).
Source text: (§1) Methodology: after Berjeron et al, Biochem and Bioph Res. Comm., 1984, 121, 3, 848-854.
(§2) P388=Murine lymphoma. A549=human lung carcinoma. HT-29=human colon carcinoma. MEL-28=human melanoma.
(§3) A549=human lung carcinoma. HT-29=human colon carcinoma. MEL-28=human melanoma.
Series [2] relates to HT-29 human colon carcinoma. Put plainly: Cytotoxicity IC50 (after Berjeron et al).
Source text: as §1, §2, §3
Where [3] appears, read: Homo sapiens, A549, read-out: Cytotoxicity of aplidine derivatives IC50 (Molar) A549.
[4] abbreviates: Homo sapiens, HT-29, read-out: Cytotoxicity of aplidine derivatives IC50 (Molar) HT29.
Setting [5] is: read-out: Cytotoxicity of aplidine derivatives IC50 (Molar) A549, A549.
The mark [6] stands for this setting: read-out: Cytotoxicity of aplidine derivatives IC50 (Molar) HT29, HT29.

In the case of `CC[C@H](C)[C@H]1NC(=O)[C@@H](NC(=O)[C@@H](CC(C)C)N2CC[C@]3(CCCN3C(=O)C(C)=O)C2=O)[C@@H](C)OC(=O)[C@H](Cc2ccc(OC)cc2)N(C)C(=O)[C@@H]2CCCN2C(=O)[C@H](CC(C)C)NC(=O)[C@H](C(C)C)OC(=O)C[C@@H]1O` [9SPSHPL1, [Hiv]^3-[(5R)-1-(pyruvyl)-7-[(1R)-1-carboxy-3-methylbutyl]-6-oxo-1,7-diazaspiro[4,4]nonane]^7-9-aplidine], the negative-log IC50 (pIC50) in series [1] (setting [3]) and in series [2] (setting [4]) was 7.03 each time.
As for `CC[C@H](C)[C@H]1NC(=O)[C@@H](NC(=O)[C@@H](CC(C)C)N(C)C(=O)Nc2ccccc2)[C@@H](C)OC(=O)[C@H](Cc2ccc(OC)cc2)N(C)C(=O)[C@@H]2CCCN2C(=O)[C@H](CC(C)C)NC(=O)[C@@H](C)C(=O)[C@H](C(C)C)OC(=O)C[C@@H]1O` [8PUSAPL1, [Phenylurea]^8-didemnin A] ({NHPh-CO}-[dNMeL]T[X1]LP[NMeY](Me); ester 2-C), the pIC50 in series [1] (setting [3]) and in series [2] (setting [4]) was 10.03 throughout.
Regarding `CC[C@H](C)[C@H]1NC(=O)[C@@H](NC(=O)[C@@H](CC(C)C)N2CC[C@]3(CCCN3C(=O)C(C)C)C2=O)[C@@H](C)OC(=O)[C@H](Cc2ccc(OC)cc2)N(C)C(=O)[C@@H]2CCCN2C(=O)[C@H](CC(C)C)NC(=O)[C@H](C(C)C)OC(=O)C[C@@H]1O` [9SISHPL1, [Hiv]^3-[(5R)-1-(tert-buthoxycarbonyl)-7-[(1R)-1-carboxy-3-methylbutyl]-6-oxo-1,7-diazaspiro[4,4]nonane]^7-9-aplidine], the pIC50 in series [1] (setting [3]) and in series [2] (setting [4]) was 7.03 in each case.
In the case of `CC[C@H](C)[C@H]1NC(=O)[C@@H](NC(=O)[C@@H](CC(C)C)N(C)C(=O)[C@@H]2CCCN2C(=O)OC(C)(C)C)[C@@H](C)OC(=O)[C@H](Cc2ccc(OC)cc2)N(C)C(=O)[C@@H]2CCCN2C(=O)[C@H](CC(C)C)NC(=O)[C@H](C(C)C)OC(=O)C[C@@H]1O` [8PSHPL2, [Hiv]^3-[Boc-Pro]^8-didemnin A] (Boc-P[dNMeL]T[X2][Hiv]LP[NMeY](Me); ester 3-C), the pIC50 in series [1] (setting [3]) and in series [2] (setting [4]) was 9.04 each time.
With `CC[C@H](C)[C@H]1NC(=O)[C@@H](NC(=O)[C@@H](CC(C)C)N(C)C(=O)[C@@H]2CCCN2C(=O)C(C)=O)[C@@H](C)OC(=O)[C@H](Cc2ccc(OC)cc2)N(C)C(=O)[C@@H]2CCCN2C(=O)[C@H](CC(C)C)NC(=O)[C@@H](C)C(=O)[C@H](C(C)C)NC(=O)C[C@@H]1O` [SNPL1, [Aip]^3-Aplidine] (Pyruvoyl-P[dNMeL]T[X2][X4]LP[NMeY](Me); ester 3-C), the pIC50 (in general, −log10 of the IC50, conventionally taken in molar units) was 9.05 in series [1] (Homo sapiens, A549, read-out: Cytotoxicity of [aa3]-aplidine Congeners IC50 (Molar) A549) and 9.05 in series [2] (Homo sapiens, HT-29, read-out: Cytotoxicity of [aa3]-aplidine Congeners IC50 (Molar) HT29).
Regarding “[Gly]^8-[coumarin]^9-didemnin A [8G9CSAPL1]”, the pIC50 in series [1] (setting [5]) and in series [2] (setting [6]) was 8.37 each time.
For `CC[C@H](C)[C@H]1NC(=O)[C@@H](NC(=O)[C@@H](CC(C)C)N2CC[C@]3(CCCN3C(=O)OC(C)(C)C)C2=O)[C@@H](C)OC(=O)[C@H](Cc2ccc(OC)cc2)N(C)C(=O)[C@@H]2CCCN2C(=O)[C@H](CC(C)C)NC(=O)[C@H](C(C)C)OC(=O)C[C@@H]1O` [9SBSHPL1], the negative logarithm of the IC50 (pIC50) in series [1] (setting [3]) and in series [2] (setting [4]) was 8.34 each time.
`CC[C@H](C)[C@H]1NC(=O)[C@@H](NC(=O)[C@@H](CC(C)C)N(C)C(=O)C(C)C)[C@@H](C)OC(=O)[C@H](Cc2ccc(OC)cc2)N(C)C(=O)[C@@H]2CCCN2C(=O)[C@H](CC(C)C)NC(=O)[C@H](C(C)C)OC(=O)C[C@@H]1O` [8ISHPL1, [Hiv]^3-[isobutyryl]^8-didemnin A] (Isobutyryl-[dNMeL]T[X2][Hiv]LP[NMeY](Me); ester 2-C): the negative-log IC50 (pIC50) in series [1] (setting [3]) and in series [2] (setting [4]) was 9.28 throughout.
[NVa-Pro]^9-aplidine [9NVSAPL1]: the negative-log IC50 (pIC50) in series [1] (setting [5]) and in series [2] (setting [6]) was 9.36 in each case.
Consider [Hiv]^3-[Ala]^9 aplidine [9ASHPL1], for which the negative-log IC50 (pIC50) in series [1] (setting [5]) and in series [2] (setting [6]) was 9.04 in each case.
As for `CC[C@H](C)[C@H]1NC(=O)[C@@H](NC(=O)[C@@H](CC(C)C)N(C)C(=O)OCc2ccccc2)[C@@H](C)OC(=O)[C@H](Cc2ccc(OC)cc2)N(C)C(=O)[C@@H]2CCCN2C(=O)[C@H](CC(C)C)NC(=O)[C@@H](C)C(=O)[C@H](C(C)C)NC(=O)C[C@@H]1O` [SNPL3, [Aip]^3 Z-Didemnin A] (Cbz-[dNMeL]T[X2][X4]LP[NMeY](Me); ester 2-C), the pIC50 in series [1] (setting [3]) and in series [2] (setting [4]) was 10.03 throughout.
For “[Hiv]^3-[D-Lac(OTBDMS)]^9-aplidine [9LSHPL2(D)]”, the negative-log IC50 (pIC50) in series [1] (setting [5]) and in series [2] (setting [6]) was 7.07 each time.
On to “[Hiv]^3-[Z-NVa-Pro]^9-aplidine [9NVSHPL2]”, for which the pIC50 in series [1] (setting [5]) and in series [2] (setting [6]) was 8.09 each time.
For [Hiv]^3-[Pro]^8-didemnin A [8PSHPL1], the pIC50 in series [1] (setting [5]) and in series [2] (setting [6]) was 9.00 in each case.
[Hiv]^3-[NVa-Pro]^9-aplidine [9NVSHPL1]: the pIC50 in series [1] (setting [5]) and in series [2] (setting [6]) was 9.03 each time.
Turning to `CC[C@H](C)[C@H]1NC(=O)[C@@H](NC(=O)[C@@H](CC(C)C)N(C)C(=O)[C@@H](NC(=O)OC(C)(C)C)C(C)C)[C@@H](C)OC(=O)[C@H](Cc2ccc(OC)cc2)N(C)C(=O)[C@@H]2CCCN2C(=O)[C@H](CC(C)C)NC(=O)[C@H](C(C)C)OC(=O)C[C@@H]1O` [8VSHPL2, [Hiv]^3-[Boc-Val]^8-didemnin A] (Boc-V[dNMeL]T[X2][Hiv]LP[NMeY](Me); ester 3-C), the pIC50 in series [1] (setting [3]) and in series [2] (setting [4]) was 8.04 in each case.
As to `CCCCCC(=O)N(C)[C@H](CC(C)C)C(=O)N[C@@H]1C(=O)N[C@H]([C@@H](C)CC)[C@@H](O)CC(=O)O[C@@H](C(C)C)C(=O)N[C@@H](CC(C)C)C(=O)N2CCC[C@H]2C(=O)N(C)[C@@H](Cc2ccc(OC)cc2)C(=O)O[C@@H]1C` [8HSHPL1, [Hiv]^3-[hexanoyl]^8-didemnin A] (Hexanoyl-[dNMeL]T[X2][Hiv]LP[NMeY](Me); ester 2-C), the pIC50 in series [1] (setting [3]) and in series [2] (setting [4]) was 8.00 in each case.
In the case of `CC[C@H](C)[C@H]1NC(=O)[C@@H](NC(=O)[C@@H](CC(C)C)N(C)C(=O)[C@@H](N)C(C)C)[C@@H](C)OC(=O)[C@H](Cc2ccc(OC)cc2)N(C)C(=O)[C@@H]2CCCN2C(=O)[C@H](CC(C)C)NC(=O)[C@H](C(C)C)OC(=O)C[C@@H]1O` [8VSHPL1, [Hiv]^3-[Val]^8-didemnin A] (H-V[dNMeL]T[X2][Hiv]LP[NMeY](Me); ester 3-C), the negative logarithm of the IC50 (pIC50) in series [1] (setting [3]) and in series [2] (setting [4]) was 9.00 throughout.
For the molecule `CCCC(=O)N(C)[C@H](CC(C)C)C(=O)N[C@@H]1C(=O)N[C@H]([C@@H](C)CC)[C@@H](O)CC(=O)O[C@@H](C(C)C)C(=O)N[C@@H](CC(C)C)C(=O)N2CCC[C@H]2C(=O)N(C)[C@@H](Cc2ccc(OC)cc2)C(=O)O[C@@H]1C` [8BSHPL1, [Hiv]^3-[Butyryl]^8-didemnin A] (Butyryl-[dNMeL]T[X2][Hiv]LP[NMeY](Me); ester 2-C), the pIC50 in series [1] (setting [3]) and in series [2] (setting [4]) was 8.98 in each case.
For the molecule `CC[C@H](C)[C@H]1NC(=O)[C@@H](NC(=O)[C@@H](CC(C)C)N2CC[C@]3(CCCN3C(=O)C(C)=O)C2=O)[C@@H](C)OC(=O)[C@H](Cc2ccc(OC)cc2)N(C)C(=O)[C@@H]2CCCN2C(=O)[C@H](CC(C)C)NC(=O)[C@@H](C)C(=O)[C@H](C(C)C)OC(=O)C[C@@H]1O` [9SPSAPL1, [(5R)-1-(pyruvyl)-7-[(1R)-1-carboxy-3-methylbutyl]-6-oxo-1,7-diazaspiro[4,4]nonane]^7-9-aplidine], the values for the negative logarithm of the IC50 (pIC50) in series [1] (setting [3]) and in series [2] (setting [4]) were 8.07 and 8.05, respectively.
For `CC[C@H](C)[C@H]1NC(=O)[C@@H](NC(=O)[C@@H](CC(C)C)N(C)C(=O)C2CCCN2C(=O)[C@H](C)O[Si](C)(C)C(C)(C)C)[C@@H](C)OC(=O)[C@H](Cc2ccc(OC)cc2)N(C)C(=O)[C@@H]2CCCN2C(=O)[C@H](CC(C)C)NC(=O)[C@H](C(C)C)NC(=O)C[C@@H]1O` (stereo partly drawn) [9LSVPL2(L), [Val]^3-[L-Lac(OTBDMS)]^9-aplidine] (X3-[ξP][dNMeL]T[X2]VLP[NMeY](Me); ester 3-C), the pIC50 in series [1] (setting [3]) is 7.99; in series [2] (setting [4]), 8.07.
As to `CC[C@H](C)[C@H]1NC(=O)[C@@H](NC(=O)[C@@H](CC(C)C)N(C)C(=O)C2CCCN2C(=O)[C@H](C)O)[C@@H](C)OC(=O)[C@H](Cc2ccc(OC)cc2)N(C)C(=O)[C@@H]2CCCN2C(=O)[C@H](CC(C)C)NC(=O)[C@H](C(C)C)OC(=O)C[C@@H]1O` (stereo partly drawn) [9LSHPL1(L), [Hiv]^3-[L-Lac]^9-aplidine, reference compound] (H-[Lac][ξP][dNMeL]T[X2][Hiv]LP[NMeY](Me); ester 4-C), the negative-log IC50 (pIC50) in series [1] (setting [3]) and in series [2] (setting [4]) was 9.02 throughout.
For `CC[C@H](C)[C@H]1NC(=O)[C@@H](NC(=O)[C@@H](CC(C)C)N(C)C(=O)CCCCC2SCC3NC(=O)NC32)[C@@H](C)OC(=O)[C@H](Cc2ccc(OC)cc2)N(C)C(=O)[C@@H]2CCCN2C(=O)[C@H](CC(C)C)NC(=O)[C@@H](C)C(=O)[C@H](C(C)C)OC(=O)C[C@@H]1O` (stereo partly drawn) [8BISAPL1, [Biotin]^8-didemnin A] (X6-[dNMeL]T[X1]LP[NMeY](Me); ester 2-C), the negative-log IC50 (pIC50) in series [1] (setting [3]) and in series [2] (setting [4]) was 8.37 in each case.
Consider `CC[C@H](C)[C@H]1NC(=O)[C@@H](NC(=O)[C@@H](CC(C)C)N(C)C(=O)C2CCCN2C(=O)[C@@H](C)O)[C@@H](C)OC(=O)[C@H](Cc2ccc(OC)cc2)N(C)C(=O)[C@@H]2CCCN2C(=O)[C@H](CC(C)C)NC(=O)[C@H](C(C)C)OC(=O)C[C@@H]1O` (stereo partly drawn) [9LSHPL1(D), [Hiv]^3-[D-Lac]^9-aplidine] (H-[dLac][ξP][dNMeL]T[X2][Hiv]LP[NMeY](Me); ester 4-C), for which the pIC50 in series [1] (setting [3]) and in series [2] (setting [4]) was 9.02 each time.

Values taken from US20080009435A1, “Synthetic methods for aplidine and new antitumoral derivatives, methods of making and using them” (Pharma Mar, S.A., a Spain corporation, priority 2000, published 2008).
